Experimental data from publication PMC7690883, “Pseudoceratonic Acid and Moloka’iamine Derivatives from the Red Sea Verongiid Sponge Pseudoceratina arabica” (Marine Drugs, 2020).
Converted amounts (≈) assume the structure as drawn. Like-named read-outs stand apart in the source and are kept apart here.

Columns and labels:
Type in all cases: cell-based
[1] = test system: S. aureus (ATCC 25923); experiment: Disc diffusion assay, S. aureus; conditions: Staphylococcus aureus
Procedure: (§1) The antimicrobial evaluation of the compounds against E. coli, S. aureus and C. albicans at 50 µg/disc was carried out using disc diffusion assay. […] The other compounds were weakly active against the three pathogens with inhibition zones of 6–9 mm (Table 3).
(§2) Using S. aureus (ATCC 25923), E. coli (ATCC 25922), and C. albicans (ATCC 14053), a disc diffusion assay was carried out to evaluate the antimicrobial effects of 1–6 at 50 µg/disc as reported before. Ketoconazole (50 µg/disc) and ciprofloxacin (5.0 µg/disc) served as antibiotics controls.

[2] = test system: E. coli; experiment: MIC determination (dilution method), E. coli; conditions: Escherichia coli; Mueller Hinton Broth, 48 h at 37 °C
Procedure: (§3) The minimal inhibitory concentrations (MICs) of the compounds were evaluated using a […] method (Table 3).
(§4) The MIC values of the compounds were determined of using a macrodilution method. Briefly, the compounds were dissolved in MeOH at a final concentration of 2000 µg/mL. Ciprofloxacin and ketoconazole were dissolved in H2O at final concentrations of 100 µg/mL. Syringe filters (0.2 µm) were used for sterilization of all stock solutions. Two-fold serial dilutions of the solutions were used in Mueller Hinton Broth (MHB) to give concentrations of 1.0–1000 µg/mL (for the compounds) and 0.125–64 µg/mL (for ciprofloxacin and ketoconazole). 500 µL from the 10^6 CFU/mL microbial suspensions were added in sterile tubes to give inoculua of 5 × 10^5 CFU/mL. Further, 100 µL of the stock solutions of the compounds and antibiotics were added into the tubes. Control tubes with test microorganisms only and MeOH were prepared. […] The tubes were kept for 48 h at 37 °C.

[3] = test system: E. coli (ATCC 25922); experiment: Disc diffusion assay, E. coli; conditions: Escherichia coli
Procedure: as §1, §2

[4] = test system: S. aureus; experiment: MIC determination (dilution method), S. aureus; conditions: Staphylococcus aureus; Mueller Hinton Broth, 48 h at 37 °C
Procedure: as §3, §4

[5] = test system: C. albicans; experiment: MIC determination (dilution method), C. albicans; conditions: Candida albicans, read-out: C. albicans MIC
Procedure: as §3, §4

[6] = test system: MDA-MB-231 (triple-negative breast cancer); experiment: MTT cytotoxicity assay, MDA-MB-231; conditions: Homo sapiens, read-out: IC50 MDA-MB-231
Procedure: (§5) The cytotoxic and antiproliferative effects of the compounds against MDA-MB-231, HeLa, and HCT 116 cell lines were evaluated using MTT (3-(4,5-Dimethylthiazol-2-yl)-2,5-diphenyltetrazolium bromide) assay (Table 4).
(§6) The cell lines MDA-MB-231 (triple-negative breast cancer, ATCC HTB-26), HeLa (human cervical carcinoma, ATCC CCL-2), HCT 116 (colorectal carcinoma, ATCC CCL-247) were used for the evaluation of the cytotoxicity of the compounds. In addition, NHDF (normal human dermal fibroblasts) cells were used to evaluate the selectivity of compound 2 against the cancerous cell lines. DMEM, with Pen–Strep. (1%) and FBS (10%), was used for culturing MDA-MB-231 cells, while RPMI 1640, with Pen–Strep. (1%) and FBS (10%), was used for culturing HCT 116 and HeLa cells. Finally, NHDF cells were cultured in fibroblast basal medium complemented with Pen–Strep. (1% v/v), heat-inactivated fetal bovine serum (FBS) (2% v/v), insulin (5 µg/mL) and basic fibroblast growth factor (1 ng/mL). Culture of all cells was completed at 37 °C with 5% CO2 and 95% humidity.
(§7) The cytotoxic effects of the compounds were evaluated using MTT assay as reported earlier. Briefly, all cells kept overnight in 5% CO2/air and at 37 °C. Tested compounds were added to the upper row of a 96-well plate followed by 1:4 (v/v) serial dilutions. After 72 h incubation of the compounds with the cells (10,000 cells/well for HCT 116 and NHDF, and 12,000 cells/well for HeLa and MDA-MB-231), the cells’ viability was calculated at 490 nm as reported before. 5-Fluorouracil (5-FU) and DMSO were used as positive and negative controls. The IC50 values reported in […] represent the mean of three separate experiments. A concentration of 10 µM was set as a cutoff value in this assay.

[7] = test system: HCT 116 (colorectal carcinoma); experiment: MTT cytotoxicity assay, HCT 116; conditions: Homo sapiens, read-out: IC50 HCT 116
Procedure: as §5, §6, §7

[8] = test system: HeLa (human cervical carcinoma); experiment: MTT cytotoxicity assay, HeLa; conditions: 72 h, read-out: IC50 HeLa
Procedure: as §5, §6, §7

[9] = test system: C. albicans (ATCC 14053); experiment: Disc diffusion assay, C. albicans; conditions: Candida albicans
Procedure: as §1, §2

[10] = test system: NHDF (normal human dermal fibroblasts); experiment: MTT cytotoxicity assay, NHDF; conditions: 72 h
Procedure: as §5, §6
The cytotoxic effects of the compounds were evaluated using MTT assay as reported earlier. […] After 72 h incubation of the compounds with the cells (10,000 cells/well for HCT 116 and NHDF, and 12,000 cells/well for HeLa and MDA-MB-231), the cells’ viability was calculated at 490 nm as reported before. […]

[11] = ATCC25923, read-out: S. aureus Inhibition Zone
[12] = ATCC25922, read-out: E. coli Inhibition Zone
[13] = ATCC14053, read-out: C. albicans Inhibition Zone
[14] = MDA-MB-231, MTT, 72 h, cutoff 10 µM
[15] = HCT-116, MTT, 72 h, cutoff 10 µM
[16] = Homo sapiens, HeLa, MTT, cutoff 10 µM
[17] = Mueller Hinton Broth, 48 h at 37 °C
[18] = ATCC14053, disc diffusion, 50 µg/disc (compounds and ketoconazole), read-out: C. albicans Inhibition Zone

| SMILES | MIC [2] | MIC [4] | MIC ([5]; 48 h) | IC50 ([6]; MDA-MB-231, 72 h) | IC50 ([7]; HCT-116, 72 h) | zone of inhibition at 50 µg/disc [1, 11] | zone of inhibition at 50 µg/disc [3, 12] | IC50 ([8]; Homo sapiens, HeLa) | zone of inhibition at 50 µg/disc [9, 13] | IC50 [6, 14] | IC50 [7, 15] | IC50 [8, 16] | other results |
| --- | --- | --- | --- | --- | --- | --- | --- | --- | --- | --- | --- | --- | --- |
| O=C(O)c1cn(C2CC2)c2cc(N3CCNCC3)c(F)cc2c1=O [Ciprofloxacin, reference compound] | 0.25 µg/mL (≈ 0.754 µM) | 0.5 µg/mL (≈ 1.51 µM) |  |  |  |  |  |  |  |  |  |  | zone of inhibition at 5 µg/disc ([1]; ATCC25923, disc diffusion, ciprofloxacin 5.0 µg/disc): 22 mm; zone of inhibition at 5 µg/disc ([3]; ATCC25922, disc diffusion, ciprofloxacin 5.0 µg/disc): 30 mm |
| CCOC(=O)NCCCOc1c(Br)cc(CCN)cc1Br [Compound 3, ceratinine O] | 125 µg/mL (≈ 295 µM) | 64 µg/mL (≈ 151 µM) | 64 µg/mL (≈ 151 µM) | ≥ 10 µM | 9.5 ± 0.85 µM | 8 mm | 6 mm | ≥ 10 µM | 9 mm |  |  |  |  |
| O=c1[nH]cc(F)c(=O)[nH]1 [Compound 5-FU, 5-Fluorouracil, reference compound] |  |  |  |  |  |  |  |  |  | 13 ± 0.3 µM | 4.6 ± 0.23 µM | 12.3 ± 0.25 µM |  |
| N#CC(=O)NCCCOc1c(Br)cc(CCNC=C2C(=O)C=CC2=O)cc1Br [Compound 2, ceratinine N] | 125 µg/mL (≈ 245 µM) | 125 µg/mL (≈ 245 µM) |  |  |  |  |  |  |  | 3.1 ± 0.29 µM | 2.9 ± 0.18 µM | 2.1 µM | MIC [5, 17]: 16 µg/mL (≈ 31.3 µM); zone of inhibition at 50 µg/disc ([1]; ATCC25923, disc diffusion, 50 µg/disc, read-out: S. aureus Inhibition Zone): 7 mm; zone of inhibition at 50 µg/disc ([3]; ATCC25922, disc diffusion, 50 µg/disc, read-out: E. coli Inhibition Zone): 6 mm; IC50 ([8]; MTT, cutoff 10 µM): 2.3 ± 0.16 µM; zone of inhibition at 50 µg/disc [9, 18]: 16 mm; IC50 [10]: 3.5 ± 0.3 µM |
| CC(=O)N1CCN(c2ccc(OCC3COC(Cn4ccnc4)(c4ccc(Cl)cc4Cl)O3)cc2)CC1 (centres unmarked) [Ketoconazole, reference compound] |  |  |  |  |  |  |  |  |  |  |  |  | MIC [5, 17]: 0.5 µg/mL (≈ 0.941 µM); zone of inhibition at 50 µg/disc [9, 18]: 30 mm |
| N#CC(=O)NCCCOc1c(Br)cc(CCN)cc1Br [Compound 6, ceratinamine] | 125 µg/mL (≈ 309 µM) | 64 µg/mL (≈ 158 µM) | 32 µg/mL (≈ 79 µM) | ≥ 10 µM | ≥ 10 µM | 9 mm | 7 mm | ≥ 10 µM | 12 mm |  |  |  |  |
| NCCCOc1c(Br)cc(C(O)CN)cc1Br (centres unmarked) [Compound 5, hydroxymoloka’iamine] |  |  |  |  |  |  |  |  |  | ≥ 10 µM | ≥ 10 µM | ≥ 10 µM |  |
| NCCCOc1c(Br)cc(CCN)cc1Br [Compound 4, moloka’iamine] | 125 µg/mL (≈ 355 µM) | 125 µg/mL (≈ 355 µM) | 125 µg/mL (≈ 355 µM) | ≥ 10 µM | ≥ 10 µM | 7 mm | 6 mm | ≥ 10 µM | 6 mm |  |  |  |  |
